Patent US9365559B2, “Crystal form of Dabrafenib and preparation method of use thereof” (Hangzhou Pushai Pharmaceutical Technology Co., LTD., priority 2013, dated 2016)
“Also recorded” adds a separate entry of the source.

Key:
Assay type in all cases: physicochemical
[1] = Storage stability test (XRPD before and after storing); settings: for Storage stability (crystal form by XRPD): stored 3 months in desiccator at room temperature; for Storage stability (crystal form by XRPD) / Storage stability (crystal form): room temperature-97% RH, -75% RH, -44% RH or oven of 40° C.; for Storage stability (crystal form): stored for a long time in desiccator at room temperature
From the text: The storage stability test is: storing the sample under constant conditions (i.e. constant humidity or constant temperature) for a certain time, and then comparing the XRPDs before and after storing.

[2] = Crystal form stability on stirring in or exposure to water, aqueous ethanol or other solvent; settings: for crystal form stability in water: in water or other water containing system(s); for crystal form stability when stirred: stirred in water or aqueous ethanol solution at room temperature or high temperature (40° C.)
[3] = Competition test (suspension of equal amounts stirred overnight, XRPD); settings: for Competition test, comparison of stability (position in the rank order): in pure water, room temperature, stirred overnight
From the text: The competition test is: take equal amount of the samples, and respectively place them in isopropanol or in a mixture of water (pure water) and ethanol (wherein the volume percentage of ethanol is 0%, 20%, 50%, 80% and 100%, respectively) to form a suspension, stir it overnight at room temperature, then compare their XRPDs.

[4] = Crystal form stability during wet granulation tablet preparation (XRPD); settings: for crystal form of API after physical blending with excipients: XRPD of Sample 1 vs Sample 3, lactose, microcrystalline cellulose, polyethylene glycol 6000; for crystal form of API in the wet granulation process: XRPD of Sample 2 vs Sample 1, 50% aqueous ethanol solution
From the text: The Known Crystal Form 1, the Known Crystal Form 2 and Crystal Form VI of the present invention are examined for their stability during the formulation preparation of the wet granulation process.
The preparation process of the tablet is a parallel experiment.
(1) Blend API (selected from the Known Crystal Form 1, the Known Crystal Form 2 or Crystal Form VI of the present invention), lactose (monohydrate) and microcrystalline cellulose uniformly.
(2) Make the above mixture into soft materials by using an appropriate amount of 50% aqueous ethanol solution, screen to produce the wet granules and then dry the wet granules.
(3) Granulate the dried sample, blend with polyethylene glycol 6000 uniformly and then compress into tablets.
Respectively, take XRPD tests on the following samples obtained in the formulation preparing process of the Known Crystal Form 1, the Known Crystal Form 2 and Crystal Form VI of the present invention: (Sample 1) the sample obtained by physically blending API, lactose, microcrystalline cellulose with polyethylene glycol 6000 according to the preparation formula; (Sample 2) the sample obtained by granulating with API, lactose, microcrystalline cellulose and polyethylene glycol 6000 according to the “wet granulation” process (excluding the sample obtained after the Step (3)); (Sample 3) excluding API, the sample obtained by physically blending lactose, microcrystalline cellulose with polyethylene glycol 6000 according to the preparation formula.

[5] = Crystal form stability in capsules prepared by wet granulation (XRPD); settings: for crystal form in capsules: capsules prepared by wet granulation process, XRPD
From the text: The preparation of the capsules containing the crystal forms of the present invention.
3) Blend API (selected from the Known Crystal Form 1, the Known Crystal Form 2 and Crystal Form VI of the present invention), microcrystalline cellulose (avicel) and sodium carboxymethyl starch (SSG) uniformly.
4) Make the above mixture into soft materials by using an appropriate amount of 50% aqueous ethanol solution, then screen to produce the wet granules.
5) Dry the wet granules, grind and disperse uniformly and then transfer them into the capsules.

[6] = Crystal form stability in oral suspension (XRPD); settings: for crystal form in oral suspension: XRPD
Protocol: The preparation of the oral suspension containing the crystal forms of the present invention.
API (selected from Crystal Form VI of Dabrafenib of the present invention): 2 g;
Blend API (selected from Crystal Form VI of Dabrafenib of the present invention), cocklebur gum, sodium dihydrogen citrate, methylparaben, syrupus simplex and orange flavor, add water to 1,000 mL and stir the mixture uniformly. After that, divide the solution into 100 bottles with 20 mg API in each bottle.

[7] = Polarized light microscopy (PLM) morphology
From the text: Polarized Light Microscope (PLM) plots are collected from XP-500E polarized light microscope (by Shanghai Changfang Optical Instrument Co., Ltd). Place a small amount of powder sample on a slide glass, drip some mineral oil to disperse the powder sample, place the cover slip, then place the sample on the loading table of XP-500E polarized light microscope, choose the appropriate magnitude to observe the morphology of the sample and take pictures thereof.
(§1) The morphology comparison is obtained by PLM testing of particle shape and PSD testing of particle size.

[8] = Dynamic vapor sorption (DVS) hygroscopicity; settings: from DVS, 20~80% RH
Protocol: The dynamic vapor sorption analysis (DVS) data are collected by TA Instruments Q5000 TGA; the instrument control software is Thermal Advantage and the analysis software is Universal Analysis. Generally, take 1˜10 mg of the sample and place it in a platinum pan, and the weight changes of the sample are recorded during the course of the relative humidity changing from 0% to 80% and then to 0%. According to the specifics of the samples, different adsorption and desorption steps may be used.
The hygroscopicity is obtained by DVS testing of the weight changes between 20%-80% RH.

[9] = Particle size distribution (PSD), laser diffraction; settings: for D10 / D50: dispersant water with 2% tween-80
From the text: The particle size distribution (PSD) plot is obtained using Microtrac S3500 laser diffraction particle size analyzer. The method parameters are as follows: flow velocity of the dispersant is 50%; the dispersant is water (added with 2% tween-80); the sample refractivity is 1.58; the laser source wavelength is 780 nm; and the integral mode is volume.
as §1

[10] = Flowability observed during the experiments
[11] = Thermogravimetric analysis (TGA), thermal stability; settings: for decomposition temperature: TGA, 10° C./min, dry N2; for stability at high temperature (in words): conclusion from DSC/TGA test results
Protocol: The thermogravimetric analysis (TGA) data are collected by TA Instruments Q500 TGA; the instrument control software is Thermal Advantage and the analysis software is Universal Analysis. Generally, take 5˜15 mg sample and place it in a platinum pan, adopt the segmental high-resolution testing mode, and under the protection of 50 mL/min dry N2, heat the sample from room temperature to 300° C. at the heating rate of 10° C./min, the weight changes of the sample during the course are recorded by TA software simultaneously.

[12] = Crystal form stability during wet granulation tablet preparation (XRPD); settings: tablet prepared by wet granulation, stored 6 months at 40° C./75% RH

SMILES: CC(C)(C)c1nc(-c2cccc(NS(=O)(=O)c3c(F)cccc3F)c2F)c(-c2ccnc(N)n2)s1 [Known Crystal Form 3, N-[3-[5-(2-aminopyrimidin-4-yl)-2-(tert-butyl)thiazo-4-lyl]-2-fluorophenyl]-2,6-difluorobenzenesulfonamide, reference compound]
- crystal form stability on standing ([1]; placed at room temperature): extremely unstable; also recorded: can convert to the Known Crystal Form 1; also recorded: converts to the Known Crystal Form 1
- crystal form stability in water [2]: may convert to other form(s)

SMILES: CC(C)(C)c1nc(-c2cccc(NS(=O)(=O)c3c(F)cccc3F)c2F)c(-c2ccnc(N)n2)s1 [Known Crystal Form 2, N-[3-[5-(2-aminopyrimidin-4-yl)-2-(tert-butyl)thiazo-4-lyl]-2-fluorophenyl]-2,6-difluorobenzenesulfonamide, reference compound]
- Competition test, comparison of stability (position in the rank order) [3]: invention >The Known Crystal Form 2
- crystal form stability in water [2]: would convert to other form(s)
- crystal form stability when stirred [2]: convert to Crystal Form VI of the present invention; also recorded: unstable
- crystal form conversion in dichloromethane ([2]; stirring in dichloromethane followed by filtering and drying): can convert to the Known Crystal Form 1
- crystal form of API after physical blending with excipients [4]: keeps unchanged
- crystal form of API in the wet granulation process [4]: partially or totally converted to Crystal Form VI of the present invention
- crystal form stability in the wet granulation process or in the suspension [4]: unstable
- crystal form in capsules [5]: unstable and has converted to Crystal Form VI of the present invention
- crystal form in oral suspension [6]: unstable and has converted to Crystal Form VI of the present invention
- Morphology (particle shape) [7]: small block-shaped crystals

SMILES: CC(C)(C)c1nc(-c2cccc(NS(=O)(=O)c3c(F)cccc3F)c2F)c(-c2ccnc(N)n2)s1 [Crystal Form VII, N-[3-[5-(2-aminopyrimidin-4-yl)-2-(tert-butyl)thiazo-4-lyl]-2-fluorophenyl]-2,6-difluorobenzenesulfonamide]
- hygroscopicity (in words) [8]: low hygroscopicity; also recorded: lower than that of the Known Crystal Form 1
- Storage stability (crystal form by XRPD) [1]: its crystal form does not change
- Storage stability (crystal form) [1]: stable when stored for a long time
- Competition test, comparison of stability (position in the rank order) [3]: more stable than the Known Crystal Form 1; also recorded: >The Known Crystal Form 2
- crystal form stability when stirred [2]: convert to Crystal Form VI of the present invention
- particle size compared with known crystal forms [9]: larger particle size than those of the Known Crystal Form 1 and the Known Crystal Form 2; also recorded: larger than that of the Known Crystal Form 1 and the Known Crystal Form 2
- D10 [9]: 91 μm
- D50 [9]: 207 μm
- Morphology (particle shape) [7]: rod-shaped crystals; also recorded: good morphology; also recorded: rod-shaped particles in large size; also recorded: Rod shape
- flowability [10]: good and good flowability
- decomposition temperature [11]: 270 °C
- stability at high temperature (in words) [11]: very stable at high temperature

SMILES: CC(C)(C)c1nc(-c2cccc(NS(=O)(=O)c3c(F)cccc3F)c2F)c(-c2ccnc(N)n2)s1 [Known Crystal Form 1, N-{3-[5-(2-amino-4-pyrimidinyl)-2-(1,1-dimethylethyl)-1,3-thiazol-4-yl]-2-fluorophenyl}-2,6-difluorobenzenesulfonamide, reference compound]
- hygroscopicity (in words) [8]: some hygroscopicity
- Competition test, comparison of stability ([3]; in isopropanol or ethanol): Form 1 >The other three crystal forms.
- Competition test, comparison of stability (position in the rank order) [3]: >Crystal Form VII of the present
- crystal form stability in water [2]: readily converts to other form(s)
- crystal form stability when stirred [2]: convert to Crystal Form VI of the present invention; also recorded: unstable
- crystal form of API after physical blending with excipients [4]: keeps unchanged
- crystal form of API in the wet granulation process [4]: partially or totally converted to Crystal Form VI of the present invention
- crystal form stability in the wet granulation process or in the suspension [4]: unstable
- crystal form in capsules [5]: unstable and has converted to Crystal Form VI of the present invention
- crystal form in oral suspension [6]: unstable and has converted to Crystal Form VI of the present invention
- Morphology (particle shape) [7]: small block-shaped crystals

SMILES: CC(C)(C)c1nc(-c2cccc(NS(=O)(=O)c3c(F)cccc3F)c2F)c(-c2ccnc(N)n2)s1 [Crystal Form VI, N-[3-[5-(2-aminopyrimidin-4-yl)-2-(tert-butyl)thiazo-4-lyl]-2-fluorophenyl]-2,6-difluorobenzenesulfonamide]
- hygroscopicity (in words) [8]: not hygroscopic; also recorded: low hygroscopicity; also recorded: lower than that of the Known Crystal Form 1
- Storage stability (crystal form by XRPD) [1]: its crystal form did not change
- Storage stability (crystal form) [1]: stable when stored for a long time
- Competition test, comparison of stability (position in the rank order) [3]: >The Known Crystal Form 1
- crystal form stability when stirred [2]: keeps its form unchanged
- crystal form of API after physical blending with excipients [4]: keeps unchanged
- crystal form of API in the wet granulation process [4]: stable; also recorded: more stable than the Known Crystal Form 1 and the Known Crystal Form 2
- crystal form stability after tableting ([4]; tablet): stable after tableting
- crystal form stability in the wet granulation process or in the suspension [4]: keeps its form unchanged
- crystal form in capsules [5]: stable
- crystal form in capsules on storage ([5]; capsules stored 6 months at 40° C./75% RH): still stable
- crystal form in oral suspension on storage ([6]; oral suspension stored 6 months at 40° C./75% RH): still stable
- crystal form in oral suspension [6]: stable
- D10 [9]: 7 μm
- D50 [9]: 18 μm
- Morphology (particle shape) [7]: fine crystals; also recorded: Fine particles
- decomposition temperature [11]: 271 °C
- stability at high temperature (in words) [11]: very stable at high temperature
- stability of tablet on storage [12]: still stable
